US5420348A, “Urea derivatives and salts thereof” (Yamanouchi Pharmaceutical Co., Ltd., priority 1990, dated 1995)

What was measured:
[1] = molecular target: acyl-CoA cholesterol acyltransferase (ACAT); test: Inhibitory action against acyl-CoA cholesterol acyltransferase (ACAT) activity in rabbit liver microsome; format: biochemical; conditions: 36 μM [1-14C]oleoyl CoA, pH 7.4, 37° C., 10 minutes, read-out: ACAT Inhibiting Activity IC50 (50% Inhibition Concentration)
Method: i) ACAT enzyme inhibiting activity:
Inhibitory action against acyl-CoA cholesterol acyltransferase (ACAT) activity in rabbit liver microsome
The rabbit liver microsome was prepared as an enzyme fraction according to the method of Heider (J. G. Heider et al., J. of Lipid Res., Vol. 24, 1127-34 (1983)).
To the mixture of 0.154M phosphate buffer solution (pH 7.4), 2 mM dithiothreitol, 36 μM bovine serum albumin and 10-100 μg of microsome fraction was added liposome prepared by the method of Suckling (K. E. Suckling et al., FEBS Letters, Vol. 151, No. 111-116 (1983)) so that the proposition of liposome became 20% v/v. To the mixture was added 2% v/v of each concentration of test compound solution in dimethyl sulfoxide and the mixture was heated at 37° C. for 5 minutes. Then 36 μM oleoyl CoA containing 1^14 C-oleoyl CoA was added and the resultant mixture was heated at 37° C. for 10 minutes. The reaction was stopped by adding chloroform/methanol (=2/1). After stirring, cholesterol oleate extracted into the chloroform layer was separated by thin layer chromatography and the radioactivity was determined as ACAT activity.

serum total cholesterol = test: Lipid-lowering activity in rats fed a diet containing 1.5% cholesterol and 0.5% bile acid; format: in vivo; conditions: Rattus norvegicus; male Sprague-Dawley rats, 1.5% cholesterol/0.5% bile acid diet for 7 days, oral once a day during last 5 days, blood 2 hours after last administration; read-out: % Reduction in Serum Total Cholesterol ED50
Text: ii) Lipid-lowering activity:
Two hours after the last administration, blood samples were collected under ether anesthesia for determination of serum total cholesterol level and HDL-cholesterol level.

SMILES	IC50 [1]	ED50 (serum total cholesterol)
Cc1cc(C)c(NC(=O)N(Cc2ccc3c(c2)Cc2ccccc2-3)C2CCCCCC2)c(C)c1 [Example 1, 1-Cycloheptyl-1-[(2-fluorenyl)methyl]-3-(2,4,6-trimethylphenyl)urea]	73 nM	3.8 mg/kg
Cc1cc(C)c(NC(=O)N(Cc2cc3ccccc3c3ccccc23)C2CCCCCC2)c(C)c1 [Example 10, 1-Cycloheptyl-1-[(9-phenanthrenyl)methyl]-3-(2,4,6-trimethylphenyl)urea]	61 nM	1.7 mg/kg
